Article PMC8190884 (ACS Omega, 2021)
Marks after values point to notes of the source that are not given here.

Legend:
HIV RT [1] = assay: Steady-state incorporation of 3′-O-CH3 dTTP by HIV RT; assay type: biochemical, HIV-1; conditions: 100 μM 3′-O-methyl dTTP; for kobs ± standard deviation (steady-state): 20 nM primer–template, 20 nM RT, 30 min
HIV RT [2] = assay: Primer extension inhibition assay on a 100-nt DNA template; assay type: biochemical, HIV-1; conditions: 5 μM dNTPs, 3 μM analogue, 0.5 or 6 mM Mg2+, 30 min
[3] = target: T1, HIV reverse transcriptase (RT) (Human immunodeficiency virus type 1 group M subtype B, UniProt P04585); assay: Pre-steady-state observed incorporation rate constant; assay type: biochemical, HIV-1; conditions: 5 μM nucleotide; for kobs ± standard deviation: 37 °C
[4] = target: T1, HIV reverse transcriptase (RT); assay: Pre-steady-state determination of KD and kpol; assay type: biochemical, HIV-1; conditions: for kpol (maximum incorporation rate) / Kd: curve fit ± standard error; for Kd: Kd (equilibrium dissociation constant)
HIV RT [5] = conditions: 6 mM Mg2+, different template; ref manuscript in preparation; cited from earlier work
HIV = conditions: cited from earlier work

6/0.5 mM Mg2+ with the same nucleotide (ratio of kobs; fold slower in 0.5 mM) [3] | relative rate vs dTTP same [Mg2+] ([3]; 0.5 mM Mg2+) | kobs ± standard deviation ([3]; 0.5 mM free Mg2+) [s^–1] | relative rate vs dTTP same [Mg2+] ([3]; 6 mM Mg2+) | kobs ± standard deviation ([3]; 6 mM Mg2+) [s^–1] | Structure (SMILES) | also measured
– | – | – | – | – | CO[C@H]1C[C@H](n2cc(C)c(=O)[nH]c2=O)O[C@@H]1COP(=O)(O)OP(=O)(O)OP(=O)(O)O [3′-O-methyl dTTP] | 6/0.5 mM Mg2+ with the same nucleotide (steady-state rates) (HIV RT [1]): 5.4; kobs ± standard deviation (steady-state) (HIV RT [1]; 0.5 mM Mg2+): 3.3 × 10^–5± 0.6 × 10^–5 ^c nM/min; kobs ± standard deviation (steady-state) (HIV RT [1]; 6 mM Mg2+): 1.8 × 10^–4± 0.2 × 10^–4 ^c nM/min; inhibition of primer extension (terminated vs fully extended products), in words (HIV RT [2]): no inhibition
3.8 | 0.094 | 0.81 ± 0.13 | 0.22 | 3.1 ± 0.1 | Cc1cn([C@H]2C[C@H](N)[C@@H](COP(=O)(O)OP(=O)(O)OP(=O)(O)O)O2)c(=O)[nH]c1=O [3′-amino dTTP] | fold slower kobs compared to dTTP ([3]; 0.5 mM (low) Mg2+): > 10 fold
2.8 | 0.063 | 0.54 ± 0.13 | 0.11 | 1.5 ± 0.1 | Cc1cn([C@H]2C[C@H](F)[C@@H](COP(=O)(O)OP(=O)(O)OP(=O)(O)O)O2)c(=O)[nH]c1=O [3′-fluoro dTTP] | fold slower kobs compared to dTTP ([3]; 0.5 mM (low) Mg2+): > 10 fold
0.88 | 0.52 | 4.5 ± 1.4 | 0.28 | 3.9 ± 2.8 | Cc1cn([C@H]2C[C@H](O)[C@@](C)(COP(=O)(O)OP(=O)(O)OP(=O)(O)O)O2)c(=O)[nH]c1=O [4′-C-methyl dTTP] | incorporation rate, fold faster than D-carba dTTP ([3]; 6 mM Mg2+): about 3 fold
4.6 | 0.21 | 1.8 ± 0.7 | 0.59 | 8.3 ± 0.8 | Cc1cn([C@H]2C=C[C@@H](COP(=O)(O)OP(=O)(O)OP(=O)(O)O)O2)c(=O)[nH]c1=O [d4TTP, 2′,3′-didehydro-2′,3′-dideoxythymidine triphosphate] | fold slower kobs compared to dTTP ([3]; 6 mM (high) Mg2+): about 2 fold; efficiency decline (fold decline in kpol/Kd relative to dTTP at the same Mg2+) ([4]; 0.5 mM Mg2+): 6.7 fold; kpol/Kd (catalytic efficiency) ([4]; 0.5 mM Mg2+): 0.64; kpol (maximum incorporation rate) ([4]; 0.5 mM Mg2+): 4.9 ± 0.5 s^–1; efficiency decline (fold decline in kpol/Kd relative to dTTP at the same Mg2+) ([4]; 6 mM Mg2+): 3.2 fold; kpol/Kd (catalytic efficiency) ([4]; 6 mM Mg2+): 1.9; kpol (maximum incorporation rate) ([4]; 6 mM Mg2+): 22.3 ± 1.7 s^–1
1.6 | 1 | 8.6 ± 1.3 | 1 | 14.1 ± 1.2 | Cc1cn([C@H]2C[C@H](O)[C@@H](CO[P@](=O)(O)O[P@@](=O)(O)OP(=O)(O)O)O2)c(=O)[nH]c1=O [dTTP, Deoxythymidine triphosphate] | efficiency decline (fold decline in kpol/Kd relative to dTTP at the same Mg2+) ([4]; 0.5 mM Mg2+): 1 fold; kpol/Kd (catalytic efficiency) ([4]; 0.5 mM Mg2+): 4.3; kpol (maximum incorporation rate) ([4]; 0.5 mM Mg2+): 14.3 ± 0.8 s^–1; efficiency decline (fold decline in kpol/Kd relative to dTTP at the same Mg2+) ([4]; 6 mM Mg2+): 1 fold; kpol/Kd (catalytic efficiency) ([4]; 6 mM Mg2+): 6.0; kpol (maximum incorporation rate) ([4]; 6 mM Mg2+): 25.0 ± 1.3 s^–1; Kd ([4]; 0.5 mM Mg2+): 3.3 ± 0.6 µM; Kd ([4]; 6 mM Mg2+): 4.2 ± 0.7 µM
– | – | – | – | – | Nc1ncnc2c1ncn2[C@H]1CC[C@@H](CO[P@@](=O)(O)O[P@](=O)(O)OP(=O)(O)O)O1 [ddATP] | selectivity index, fold lower than that for AZT (HIV): about 4.5 fold
5.1 | 0.16 | 1.4 ± 0.7 | 0.51 | 7.2 ± 1.0 | Cc1cn([C@H]2CC[C@@H](COP(=O)(O)OP(=O)(O)OP(=O)(O)O)O2)c(=O)[nH]c1=O [ddTTP, dideoxy TTP] | fold slower kobs compared to dTTP ([3]; 6 mM (high) Mg2+): about 2 fold

Structure (SMILES) | 6/0.5 mM Mg2+ with the same nucleotide (ratio of kobs; fold slower in 0.5 mM) [3] | relative rate vs dTTP same [Mg2+] ([3]; 0.5 mM Mg2+) | kobs ± standard deviation ([3]; 0.5 mM free Mg2+) [s^–1] | relative rate vs dTTP same [Mg2+] ([3]; 6 mM Mg2+) | kobs ± standard deviation ([3]; 6 mM Mg2+) [s^–1] | also measured
CC[C@]1(COP(=O)(O)OP(=O)(O)OP(=O)(O)O)O[C@@H](n2cc(C)c(=O)[nH]c2=O)C[C@@H]1O [4′-C-ethyl dTTP] | – | 0.15 | 1.3 ± 0.1 | 0.28 | 3.9 ± 0.4 | incorporation rate, fold faster than D-carba dTTP ([3]; 6 mM Mg2+): about 3 fold; inhibition of primer extension (terminated vs fully extended products), in words (HIV RT [2]): less effective
Cc1cn([C@H]2C[C@H](N=[N+]=[N-])[C@@H](CO[P@](=O)(O)O[P@](=O)(O)OP(=O)(O)O)O2)c(=O)[nH]c1=O [AZTTP] | 4.5 | 0.23 | 2.0 ± 0.5 | 0.63 | 8.9 ± 1.9 | fold slower kobs compared to dTTP ([3]; 6 mM (high) Mg2+): about 2 fold; efficiency decline (fold decline in kpol/Kd relative to dTTP at the same Mg2+) ([4]; 0.5 mM Mg2+): 7.2 fold; kpol/Kd (catalytic efficiency) ([4]; 0.5 mM Mg2+): 0.6; kpol (maximum incorporation rate) ([4]; 0.5 mM Mg2+): 3.3 ± 0.3 s^–1; efficiency decline (fold decline in kpol/Kd relative to dTTP at the same Mg2+) ([4]; 6 mM Mg2+): 1.5 fold; kpol (maximum incorporation rate) ([4]; 6 mM Mg2+): 17.0 ± 0.6 s^–1; Kd ([4]; 0.5 mM Mg2+): 5.5 ± 1.7 µM
Cc1cn([C@@H]2C[C@H](COP(=O)(O)OP(=O)(O)OP(=O)(O)O)[C@@H](O)C2)c(=O)[nH]c1=O [D-carba dTTP] | not strongly affected | 0.13 | 1.1 ± 0.5 | 0.092 | 1.3 ± 0.1 | KD, fold higher than 4′-C-ethyl and 4′-C-methyl dTTP (HIV RT [5]): 4–8 fold; inhibition of primer extension (terminated vs fully extended products), in words (HIV RT [2]): by far the weakest inhibitor; inhibition of primer extension (terminated vs fully extended products), in words (HIV RT [2]; listed as D-carba): weak inhibitor under both conditions
